# Experimental data from patent publication US9688709B2, “Phosphaplatins and their use for treatment of cancers” (OHIO UNIVERSITY, priority 2010, dated 2017).
# Key:
# [1] = system: PC-3, human metastatic prostate cancer cells; test: CyQUANT cell proliferation assay, PC-3; type: cell-based; conditions: PC-3, 72-hour treatment
# Description: (§1) In these experiments, desired number of cells were exposed to phosphaplatins of different concentrations for 72 hr. before measuring the DNA content. Because the DNA content is proportional to the number of surviving cells, the assay provides a quantitative measure of proliferating cells. The technique is described in detail in Jones et al., “Sensitive determination of cell number using the CyQUANT cell proliferation assay,” J. Immunol. Methods, vol. 254, pp. 85-98 (2001).
# (§2) In TABLES 1-5, except where actual error values are given, each reported value is assumed to have an error not greater than ±15% of the reported value; and unless otherwise specified, the data were obtained from clonogenic assays.
# [2] = system: OVCAR-8, human ovarian cancer cells with dysfunctional p53; test: CyQUANT cell proliferation assay, OVCAR-8; type: cell-based; conditions: OVCAR-8, 72-hour treatment
# Description: as §1, §2
# Ovarian tumor = Ovarian tumor inflicted SCID mice, tumor growth and log cell kill; type: in vivo; conditions: 7 mg/kg
# Procedure: Ovarian tumor inflicted SCID mice were treated with trans-(±)-pyrodach-2 and trans-(±)-pyrodach-4 at various doses up to 40 mg/kg, and tumor growth was monitored up to six weeks or until the tumor size became so large that these animals were sacrificed. The tumor growth or regression by the phosphaplatin-treated mice was then compared with cisplatin-treated mice (7 mg/kg) and carboplatin-treated mice (60 mg/kg). Three doses of platinum compounds were administered on alternate days when the tumor grew to a size of at least 100 mm^3 size. Gross and net log cell kill values were then calculated using the formulas:
# [formula] [formula] where T and C are median times in days to grow tumor to a specified size, and Td is the median time in days to double the size of the tumor in control animals.
# [3] = system: A2780/C30, epithelial human ovarian cancer resistant to 30 μM cisplatin and 100 μM carboplatin; test: Clonogenic assay, A2780/C30 cells; type: cell-based; conditions: A2780/C30, 1 hour treatment
# Procedure: (§3) To determine the relative activities of the phosphaplatins of formulas (I)-(VI), each stereoisomer was tested through in vitro clonogenic assays using human ovarian cancer cells, human colon cancer cells, and human head-and-neck cancer cells. […] Cells were cultured on monolayer using RPMI 1640 supplemented with 10% fetal bovine serum, 2 mM glutamine, 0.25 units/mL insulin and penicillin/streptomycin (100 units/mL) in a 37° C. incubator continuously gassed with 5% CO2. Cells were subcultured using 0.0625% trypsin in HBSS to maintain cells in exponential cell growth.
# (§4) Half-maximal inhibitory concentration (IC50) values were determined using a clonogenic assay or a CyQUANT® cell proliferation assay. In the clonogenic assay, for example, 500-700 A2780 cells from a single cell suspension were plated onto 60 mm petri plates 24 hours before treatment with the platinum compounds to permit cell attachment. On the day of treatment with the platinum compounds described in the above Synthesis Examples, the medium was decanted and was replaced with the appropriate concentration of phosphaplatin compounds (from 50 nM to 75 μM) at three different time points, […] Triplicate plates were set up for each platinum compound concentration. After the 24-hour treatment, the medium containing the platinum compounds was decanted and was replaced with fresh medium. These plates were returned to the 37° C. incubator for 7 days for colony formation.
# as §2
# (§5) In further tests, cells were treated with the platinum compounds continuously for 7 days. Colonies were fixed and stained using 2% crystal violet in 4% formaldehyde. Colonies containing more than 50 cells were scored. The number of scored colonies from the triplicate plates was averaged, and this number was divided by the number of cells plated to obtain a value for the fraction of cells forming colonies. These values for fraction of cells forming colonies then were corrected for plating efficiency by dividing the fraction by the number of cells forming colonies in plates that were not treated with platinum compounds. […] Similar data for OVCAR-10 are shown in FIG. 3, comparing (1R,2R)-pyrodach-2 (RD2), (1R,2R)-pyrodach-4 (RD4), trans-(±)-pyrodach-2 (T-D2), and trans-(±)-pyrodach-4 (T-D4).
# [4] = system: A549, human lung adenocarcinoma cancer cells; test: CyQUANT cell proliferation assay, A549; type: cell-based; conditions: A549, 72-hour treatment
# Description: as §1, §2
# [5] = system: MCF-7, human breast cancer cells; test: CyQUANT cell proliferation assay, MCF-7; type: cell-based; conditions: MCF-7, 72-hour treatment
# Description: as §1, §2
# [6] = system: SKMEL-2, human skin melanoma cancer cells; test: CyQUANT cell proliferation assay, SKMEL-2; type: cell-based; conditions: SKMEL-2, 72-hour treatment
# Description: as §1, §2
# [7] = system: U251, human glioblastoma cancer cells; test: CyQUANT cell proliferation assay, U251; type: cell-based; conditions: U251, 72-hour treatment
# Description: as §1, §2
# [8] = system: OVCAR-10, human ovarian cancer resistant to cisplatin treatment; test: CyQUANT cell proliferation assay, OVCAR-10; type: cell-based; conditions: OVCAR-10, 72-hour treatment
# Description: as §1, §2
# [9] = system: human colon cancer cell lines (HT-29); test: CyQUANT cell proliferation assay, HT-29; type: cell-based; conditions: HT-29, 72 hours
# Description: as §1, §2
# [10] = system: A2780, epithelial human ovarian cancer; test: Clonogenic assay, A2780 cells; type: cell-based
# Procedure: as §3
# as §4, with “After the 24-hour treatment, the medium containing the platinum compounds was decanted and was replaced with fresh medium.” left out
# as §2, §5
# [11] = system: OVCAR-10, human ovarian cancer resistant to cisplatin treatment; test: Clonogenic assay, OVCAR-10 cells; type: cell-based; conditions: OVCAR-10, 24 hours treatment
# Procedure: as §3
# Half-maximal inhibitory concentration (IC50) values were determined using a clonogenic assay or a CyQUANT® cell proliferation assay. In the clonogenic assay, for example, 500-700 A2780 cells from a single cell suspension were plated onto 60 mm petri plates 24 hours before treatment with the platinum compounds to permit cell attachment. On the day of treatment with the platinum compounds described in the above Synthesis Examples, the medium was decanted and was replaced with the appropriate concentration of phosphaplatin compounds (from 50 nM to 75 μM) at three different time points, and the treated cells were placed back into the 37° C. incubator for 24 hours. Triplicate plates were set up for each platinum compound concentration. After the 24-hour treatment, the medium containing the platinum compounds was decanted and was replaced with fresh medium. These plates were returned to the 37° C. incubator for 7 days for colony formation.
# as §2, §5
smiles,measurement,setting,value
N.N.[Cl][Pt][Cl] [cisplatin],IC50,[1],1.08 µM
same,IC50,[2],6.3 µM
same,time to death of treated mice,Ovarian tumor,≤ 7 days
same,tumor response,Ovarian tumor,tumor regression
same,IC50,[3],100 µM
same,IC50,[4],2.8 µM
same,IC50,[5],5.1 µM
same,IC50,[6],5.34 µM
same,IC50,[7],0.75 µM
same,IC50,[8],3.1 µM
same,IC50,[9],6.5 µM
same,IC50,"[10]; A2780, 1 hour treatment",7 µM
same,IC50,"[10]; A2780, 24 hours treatment",5 µM
same,IC50,[11],4.1 µM
